Data from patent publication US20260337153A1, “IONIZABLE AMINE LIPIDS” (Intellia Therapeutics, Inc., priority 2023, published 2026).
Where “and” joins values, the source holds several entries; their conditions need not be identical. Identical values can stand only once. Like-named read-outs stand apart in the source and are kept apart here.

Legend:
Type in all cases: physicochemical
[1] = pKa of unformulated amine lipid by TNS fluorescence
Method in brief: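 Unformulated amine lipid was diluted from ethanol stock to approx. 100 μM in 0.1 M sodium phosphate buffers spanning pH 4.5–9.0 with TNS. Fluorescence read at ex 321/em 448 nm; normalized data fitted sigmoidally to give pKa.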

[2] = LNP average particle size and polydispersity by dynamic light scattering; conditions: 38% cholesterol, 9% DSPC, sgRNA:mRNA 1:2; for Number mean / PDI / Z-avg: Table 3, Experiments 1-13, LNP 50% ionizable lipid, 3% PEG2K-DMG; for Number mean (average particle size) / PDI (polydispersity index) / Z-avg (average particle size): LNP with 50% ionizable lipid, 3% C13 Ether (LNP #1, Compound 53: 3% PEG2K-DMG instead)
Procedure: Dynamic Light Scattering (“DLS”) is used to characterize the polydispersity index (“pdi” or “PDI”) and size of the LNPs of the present disclosure. DLS measures the scattering of light that results from subjecting a sample to a light source. PDI, as determined from DLS measurements, represents the distribution of particle size (around the mean particle size) in a population, with a perfectly uniform population having a PDI of zero.
(§1) LNP compositions are analyzed for average particle size, polydispersity index (pdi), total RNA content, encapsulation efficiency of RNA, and zeta potential. LNP compositions may be further characterized by lipid analysis, AF4-MALS, NTA, and/or cryo-EM.
Average particle size and polydispersity are measured by dynamic light scattering (DLS) using a Malvern Zetasizer DLS instrument. LNP samples were diluted with PBS buffer prior to being measured by DLS. Z-average diameter (“Z-avg”) which is an intensity-based measurement of average particle size was reported along with number average diameter (“number mean”) and PDI. A Malvern Zetasizer instrument is also used to measure the zeta potential of the LNP. Samples are diluted 1:17 (50 μL into 800 μL) in 0.1×PBS, pH 7.4 prior to measurement.
(§2) In vivo editing efficiency for materials delivered with formulations including various amine lipid (or ionizable lipid) compounds in Experiments 1 through 14 as described in Tables 3 and 4 was assessed. Editing was measured using G000534 (SEQ ID NO: 5) which targets the rat TTR gene. Lipids described above were assessed for efficacy through in vivo editing experiments. LNPs were formulated at a 1:2 w/w ratio of sgRNA (SEQ ID NO: 5) and Cas9 mRNA (SEQ ID NO: 3). In Experiments 1 through 13, lipid components of the LNP are formulated in a molar ratio of 50% ionizable lipid, 38% cholesterol, 9% DSPC, and 3% PEG2K-DMG. In Experiment 14, lipid components of the LNP are formulated in a molar ratio of 50% ionizable lipid, 38% cholesterol, 9% DSPC, and 3% C13 Ether. The final LNPs used in different in vivo editing experiments were characterized to determine the encapsulation efficiency (% E), polydispersity index (PDI), and average particle size (Z-avg and number mean) according to the analytical methods provided above. The pKa values of each of the following ionizable lipids were also measured to be in the range of about 5.8 to about 7.6.
(§3) In vivo editing efficiency for materials delivered with formulations including various combinations of amine lipid (or ionizable lipid) and PEG lipid compounds was assessed as described in Tables 5 and 6. Editing was measured using G000534 (SEQ ID NO: 5) which targets the rat TTR gene. Lipids described above were assessed for efficacy through in vivo editing experiments. LNPs were formulated at a 1:2 w/w ratio of sgRNA (SEQ ID NO: 5) and Cas9 mRNA (SEQ ID NO:3). Lipid components of the LNP are formulated in a molar ratio of 50% ionizable lipid, 38% cholesterol, 9% DSPC, and 3% of various PEG lipids (e.g., PEG2K-DMG, C13 Ether, C14 Ether). The final LNPs used in different in vivo editing experiments were characterized to determine the encapsulation efficiency (% E), polydispersity index (PDI), and average particle size (Z-avg and number mean) according to the analytical methods provided above. The pKa values of each of the following ionizable lipids were also measured to be in the range of about 5.8 to about 7.6.
In vivo editing efficiency for materials delivered with formulations including various amine lipid (or ionizable lipid) compounds as described in Tables 7 and 8 was assessed. Editing was measured using G000534 (SEQ ID NO: 5) which targets the rat TTR gene. Lipids described above were assessed for efficacy through in vivo editing experiments. LNPs were formulated at a 1:2 w/w ratio of sgRNA (SEQ ID NO: 5) and Cas9 mRNA (SEQ ID NO: 3). Lipid components of the LNP were formulated in a molar ratio of 50% ionizable lipid, 38% cholesterol, 9% DSPC, and 3% C13 Ether. […]

[3] = LNP encapsulation efficiency of RNA (Ribogreen fluorescence assay); conditions: 38% cholesterol, 9% DSPC, sgRNA:mRNA 1:2
Procedure: as §1
Encapsulation efficiency is calculated as (Total RNA−Free RNA)/Total RNA. A fluorescence-based assay (Ribogreen®, ThermoFisher Scientific) is used to determine total RNA concentration and free RNA. LNP samples are diluted appropriately with 1×TE buffer containing 0.2% Triton-X 100 to determine total RNA or 1×TE buffer to determine free RNA. Standard curves are prepared by utilizing the starting RNA solution used to make the compositions and diluted in 1×TE buffer+/−0.2% Triton-X 100. Diluted RiboGreen® dye (according to the manufacturer's instructions) is then added to each of the standards and samples and allowed to incubate for approximately 10 minutes at room temperature, in the absence of light. A SpectraMax M5 Microplate Reader (Molecular Devices) is used to read the samples with excitation, auto cutoff and emission wavelengths set to 488 nm, 515 nm, and 525 nm respectively. Total RNA and free RNA are determined from the appropriate standard curves. Alternatively, the total RNA concentration can be determined by a reverse-phase ion-pairing (RP-IP) HPLC method. Triton X-100 is used to disrupt the LNPs, releasing the RNA. The RNA is then separated from the lipid components chromatographically by RP-IP HPLC and quantified against a standard curve using UV absorbance at 260 nm.
as §2, §3
In vivo editing efficiency for materials delivered with formulations including various amine lipid (or ionizable lipid) compounds as described in Tables 7 and 8 was assessed. […]

[4] = sodium phosphate buffer, Table 2, unformulated amine lipid, TNS, read-out: Lipid pKa
[5] = Table 3, Experiments 1-13, LNP 50% ionizable lipid, 3% PEG2K-DMG
[6] = sodium phosphate buffer, additional ionizable lipids (53-61), unformulated amine lipid, TNS, read-out: Lipid pKa
[7] = LNP with 50% ionizable lipid, 3% C13 Ether (LNP #1, Compound 53: 3% PEG2K-DMG instead)

Structure (SMILES) | pKa [1, 4] | Number mean [2] | PDI [2] | Z-avg [2] | % E (encapsulation efficiency) [3, 5] | pKa [1, 6] | pKa ([1]; read-out: pKa) | Number mean (average particle size) [2] [nm] | PDI (polydispersity index) [2] | Z-avg (average particle size) [2] [nm] | % E (encapsulation efficiency) [3, 7] [%]
CCCCC/C=C\C/C=C\CCCCCCCC(=O)OCC(CCCCC(=O)OC(CCCCCCCC)CCCCCCCC)COC(=O)OCCCN(CC)CC (stereo not shown) [Compound 15, 2-((((3-(diethylamino)propoxy)carbonyl)oxy)methyl)-7-(heptadecan-9-yloxy)-7-oxoheptyl (9Z,12Z)-octadeca-9,12-dienoate] | 6.11 | 58 nm | 0.06 | 66 nm | 98% | – | – | – | – | – | –
CCCCC/C=C\C/C=C\CCCCCCCC(=O)OCC(COC(=O)CCC(OCCCCCCCC)OCCCCCCCC)COC(=O)NCCN(CC)CC (stereo not shown) [Compound 54] | – | 80 nm | 0.003 | 98 nm | 88% | 6.5 | – | – | – | – | –
CCCCC/C=C\C/C=C\CCCCCCCC(=O)OCC(COC(=O)CCCCCC(=O)OC(CCCCCCCC)CCCCCCCC)COC(=O)OCCCN(CC)CC (stereo not shown) [Compound 57] | – | 75 nm and 80 nm | – | 91 nm and 88 nm | 96% | 6.1 | – | – | – | – | –
CCCCCCCCC(CCCCCCCC)OC(=O)CCCCCCC(=O)OCC(CC)(COC(=O)CCCCCCC(=O)OC(CCCCCCCC)CCCCCCCC)COC(=O)NCCN(CC)CC [Compound 66, O′1,O1-(2-((((2-(diethylamino)ethyl)carbamoyl)oxy)methyl)-2-ethylpropane-1,3-diyl) 8,8′-di(heptadecan-9-yl) di(octanedioate)] | – | – | – | – | – | – | 6.1 | 64 | 0.01 | 78 | 99
CCCCCCCCC(CCCCCCCC)OC(=O)CCCCCCC(=O)OCC(CC)(COC(=O)CCCCCCC(=O)OC(CCCCCCCC)CCCCCCCC)COC(=O)OCCCN1CCCC1 [Compound 67, O′1,O1-(2-ethyl-2-((((3-(pyrrolidin-1-yl)propoxy)carbonyl)oxy)methyl)propane-1,3-diyl) 8,8′-di(heptadecan-9-yl) di(octanedioate)] | – | – | – | – | – | – | 6.2 | 53 | 0.03 | 65 | 99
CCCCC/C=C\C/C=C\CCCCCCCC(=O)OCC(COC(=O)CCCC(=O)OC(CCCCCCCC)CCCCCCCC)COC(=O)NCCN(CC)CC (stereo not shown) [Compound 58] | – | 69 nm and 84 nm and 77 nm | – | 91 nm and 92 nm and 94 nm | 87% and 90% | 6.8 | – | – | – | – | –
CCCCC/C=C\C/C=C\CCCCCCCC(=O)OCC(CCCCC(=O)OC(CCCC)CCCC)COC(=O)OCCCN(C)CC (stereo not shown) [Compound 13, 2-((((3-(ethyl(methyl)amino)propoxy)carbonyl)oxy)methyl)-7-(nonan-5-yloxy)-7-oxoheptyl (9Z,12Z)-octadeca-9,12-dienoate] | 6.64 | 87 nm | 0.04 | 99 nm | 98% | – | – | – | – | – | –
CCCCCCCCC(CCCCCCCC)OC(=O)CCCC(=O)OCC(COC(=O)CCCC(=O)OC(CCCCCCCC)CCCCCCCC)COC(=O)OCCCN1CCCC1 [Compound 33, di(heptadecan-9-yl) O,O′-(2-((((3-(pyrrolidin-1-yl)propoxy)carbonyl)oxy)methyl)propane-1,3-diyl) diglutarate] | 6.5 | 66 nm | 0.023 | 71 nm | 100% | – | – | 60 | 0.01 | 73 | 99
CCCCC/C=C\C/C=C\CCCCCCCC(=O)OCC(CCCCCCCCC(=O)OC(CCCCCCCC)CCCCCCCCC)COC(=O)CCC(CCCC)OC(=O)NCCN1CCCC1 (stereo not shown) [Compound 27, 11-(octadecan-9-yloxy)-11-oxo-2-(((4-(((2-(pyrrolidin-1-yl)ethyl)carbamoyl)oxy)octanoyl)oxy)methyl)undecyl (9Z,12Z)-octadeca-9,12-dienoate] | 6.75 | 77 nm | 0.01 | 82 nm | 98% | – | – | – | – | – | –
CCCCC/C=C\C/C=C\CCCCCCCC(=O)OCC(COC(=O)CCCC(=O)OC(CCCCCCCC)CCCCCCCC)COC(=O)NCCN1CCCCCC1 (stereo not shown) [Compound 50, 3-(((2-(azepan-1-yl)ethyl)carbamoyl)oxy)-2-((((9Z,12Z)-octadeca-9,12-dienoyl)oxy)methyl)propyl heptadecan-9-yl Glutarate] | 6.6 | 66 nm | 0.02 | 74 nm | 98% | – | – | – | – | – | –
CCCCC/C=C\C/C=C\CCCCCCCC(=O)OCC(CCCCCCC(=O)OC(CCCC)CCCC)COC(=O)OCCCN(CC)CC (stereo not shown) [Compound 20, 2-((((3-(diethylamino)propoxy)carbonyl)oxy)methyl)-9-(nonan-5-yloxy)-9-oxononyl (9Z,12Z)-octadeca-9,12-dienoate] | 6.19 | 68 nm | 0.05 | 84 nm | 98% | – | – | – | – | – | –
CCCCC/C=C\C/C=C\CCCCCCCC(=O)OCC(CCCCC(=O)OC(CCCCCC)CCCCCC)COC(=O)OCCCN(CC)CC (stereo not shown) [Compound 17, 2-((((3-(diethylamino)propoxy)carbonyl)oxy)methyl)-7-oxo-7-(tridecan-7-yloxy)heptyl (9Z,12Z)-octadeca-9,12-dienoate] | 6.13 | 67 nm | 0.03 | 74 nm | 99% | – | – | – | – | – | –
CCCCCCCCOC(CCC(=O)OCC(COC(=O)CCC(OCCCCCCCC)OCCCCCCCC)COC(=O)NCCN(CC)CC)OCCCCCCCC [Compound 22, 2-((((2-(diethylamino)ethyl)carbamoyl)oxy)methyl)propane-1,3-diyl bis(4,4-bis(octyloxy)butanoate)] | 6.66 | 77 nm | 0 | 82 nm | 99% | – | – | – | – | – | –
